Activity calls are given as the source filed them. The rule behind the calls is not given here.
Tested on: GENE-TOX genotoxicity assays, various organisms and cells
Experiment: GENE-TOX mutagenicity studies
[1] = Species/Cell Type: Salmonella typhimurium (one or more of the five standard strains: TA98, TA100, TA1535, TA1537, and TA1538), Assay Type: Histidine reverse gene mutation, Ames assay, Assay Code: SALT, Evaluation Type: Evaluation A (Pre-1980)
[2] = Species/Cell Type: Bacillus subtilis (H17 vs M45), Assay Type: Rec-assay, spot test, DNA effects (bacterial DNA repair), Assay Code: REW-, Evaluation Type: Evaluation A (Pre-1980)
[3] = Species/Cell Type: Human, Assay Type: Sister-chromatid exchange (SCE) in vitro, Assay Code: SC1+D, Dose Response: With dose response, Evaluation Type: Evaluation B (Post-1980)

In the case of Cc1ccc(F)c2ccc3c4ccccc4ccc3c12, the mutagenic call [1] is reported as “no conclusion”.

O=C1CN(/N=C/C=C/c2ccc([N+](=O)[O-])o2)C(=O)N1 was tested, and the mutagenic call (Species/Cell Type: Escherichia coli WP2, Assay Type: Tryptophan reverse gene mutation, Assay Code: WP2+, Evaluation Type: Evaluation A (Pre-1980)) was “active; positive” and the mutagenic call (Species/Cell Type: Escherichia coli WP2 UVRA, Assay Type: Tryptophan reverse gene mutation, Assay Code: WPU-, Evaluation Type: Evaluation A (Pre-1980)) was “inactive; negative”.

For O[C@@H]1c2ccccc2-c2cc3ccc4ccccc4c3cc2[C@@H]1O, the mutagenic call (Species/Cell Type: Chinese hamster lung (V79) cells, Assay Type: Forward gene mutation at the HPRT or ouabain locus, Assay Code: V79-, Evaluation Type: Evaluation A (Pre-1980)) was “inactive; negative”, the mutagenic call (Species/Cell Type: Mouse prostate cells, Assay Type: Cell transformation, Assay Code: CTM-, Evaluation Type: Evaluation A (Pre-1980)) was “inactive; negative” and the mutagenic call (Species/Cell Type: Syrian hamster embryo (SHE) cells, Assay Type: Cell transformation, clonal assay, Assay Code: CTC+, Evaluation Type: Evaluation A (Pre-1980)) was “active; positive”.

For CN[C@@H](C)Cc1ccccc1, the mutagenic call (Species/Cell Type: Drosophila melanogaster, Assay Type: Sex-linked recessive lethal gene mutation, Assay Code: SRLT, Evaluation Type: Evaluation A (Pre-1980)) was “no conclusion”.

In the case of O=C1c2cccc(O)c2C(=O)c2c(O[C@@H]3O[C@H](CO)[C@@H](O)[C@H](O)[C@H]3O)cccc21, the mutagenic call (Species/Cell Type: Salmonella typhimurium (one or more of the five standard strains: TA98, TA100, TA1535, TA1537, and TA1538), Assay Type: Histidine reverse gene mutation, Ames assay, Assay Code: SAL+*, Activation: With metabolic activation, Evaluation Type: Evaluation A (Pre-1980)) is reported as “active; positive”.

Cc1cc(O)c2c(c1)C(=O)c1cc(O)cc(O)c1C2=O was tested, and the mutagenic call [2] was “inactive; negative” and the mutagenic call (Species/Cell Type: Escherichia coli polA (W3119 vs P3478), Assay Type: Rec-assay, DNA effects (bacterial DNA repair), Assay Code: RE1T, Evaluation Type: Evaluation A (Pre-1980)) was “no conclusion”.

CNO was tested, and the mutagenic call (Species/Cell Type: Neurospora crassa, Assay Type: Reverse gene mutation, Assay Code: NER+, Evaluation Type: Evaluation A (Pre-1980)) was “active; positive”.

In the case of c1cncc([C@@H]2CCCN2)c1, the mutagenic call (Species/Cell Type: Nonhuman, Assay Type: Sister-chromatid exchange (SCE) in vitro, Assay Code: SC2+, Evaluation Type: Evaluation B (Post-1980)) is reported as “active; positive”.

In the case of COC/C=C(C)/C=C/C=C(C)/C=C/C1=C(C)CCCC1(C)C, the mutagenic call [3] is reported as “active; positive”.

With CCCCCC[C@@H](O)[C@@H]1C2=C(C[C@H]([C@H](O)[C@@H]3CC=CC(=O)O3)CC3=C(C(=O)OC3=O)[C@@H]1O)C(=O)OC2=O the mutagenic call [2] was “inactive; negative”, the mutagenic call (Species/Cell Type: Rodents, Sex: Male, Assay Type: Dominant lethal test, Assay Code: DLT+, Evaluation Type: Evaluation A (Pre-1980)) was “active; positive” and the mutagenic call (Species/Cell Type: Saccharomyces cerevisiae, Assay Type: Mitotic recombination or gene conversion, Assay Code: YEH-, Evaluation Type: Evaluation A (Pre-1980)) was “inactive; negative”. The mutagenic call [1] was “no conclusion”.

In the case of O=C1c2c(O)cccc2Cc2cccc(O)c21, the mutagenic call (Species/Cell Type: Mammalian polychromatic erythrocytes, Assay Type: Micronucleus test, chromosome aberrations, Assay Code: MNT-, Evaluation Type: Evaluation B (Post-1980)) is reported as “inactive; negative” and the mutagenic call (Species/Cell Type: Saccharomyces cerevisiae, Assay Type: Mitotic recombination or gene conversion, Assay Code: YECT, Evaluation Type: Evaluation A (Pre-1980)) is reported as “no conclusion”.

For Cc1ccc(N)c(N)c1, the mutagenic call (Species/Cell Type: Mammalian polychromatic erythrocytes, Assay Type: Micronucleus test, chromosome aberrations, Assay Code: MNT+, Evaluation Type: Evaluation B (Post-1980)) was “active; positive”.

In the case of C[C@]12CCC3=C4CCC(=O)C=C4CC[C@H]3[C@@H]1CC[C@@]2(O)CC#N, the mutagenic call (Species/Cell Type: Rabbit, Sex: Male, Assay Type: Sperm morphology, Assay Code: SPR+, Evaluation Type: Evaluation A (Pre-1980)) is reported as “active; positive”.

In the case of O=NN(CCCl)C(=O)NCCCCO, the mutagenic call (Species/Cell Type: Saccharomyces cerevisiae, Assay Type: Mitotic recombination or gene conversion, Assay Code: YEC+, Evaluation Type: Evaluation A (Pre-1980)) is reported as “active; positive”.

O=c1[nH]c(=O)n([C@H]2C[C@H](O)[C@@H](CO)O2)cc1/C=C/Br was tested, and the mutagenic call (Species/Cell Type: Human lymphocytes, Assay Type: Sister-chromatid exchange (SCE) in vitro, Assay Code: SCL+, Evaluation Type: Evaluation B (Post-1980)) was “active; positive” and the mutagenic call [3] was “active; positive”.

— PubChem BioAssay AID1259408 (Genetic Toxicology Data Bank (GENE-TOX), 2018)
